US20180105838A1, “PROCESS FOR DE NOVO MICROBIAL SYNTHESIS OF TERPENES” (BASF SE, priority 2015, published 2018)

What was measured:
[1] = test system: Methylobacterium extorquens AM1; assay type: cell-based
Protocol: (§1) 1.6 Dodecane and α-Humulene Tolerance of M. extorquens AM1
M. extorquens AM1 precultures were cultured in test tubes with 5 ml methanol minimal medium (MM) for 48 h. The tolerance of M. extorquens AM1 towards 20% (v/v) dodecane was studied by growth comparison ( OD600) of cultures containing 15 ml MM and cultures with 12 ml MM and 3 ml dodecane. The cultures for the growth comparison with and without dodecane were inoculated from one preculture.

[2] = test system: Methylobacterium extorquens AM1; experiment: α-humulene tolerance of M. extorquens AM1 (growth rate comparison, OD600); assay type: cell-based; settings: FIG. 3
Protocol: as §1
The α-humulene tolerance was tested in two ways: tolerance towards α-humulene added directly to the aqueous phase and tolerance towards α-humulene dissolved in the organic dodecane layer. For the first experiment, pure α-humulene dissolved in ethanol was added to 100 ml baffled shaker flasks containing 15 ml MM with end concentrations of α-humulene of 1000, 500, 250, 100, 50, 25, 10 and 5 mg/L. Corresponding quantities of ethanol were added to the MM as negative controls. The flasks with the different α-humulene concentrations and the corresponding negative controls were inoculated with a preculture without α-humulene to an OD600 of 0.1. The OD600 was recorded over 30 h.
For the second said experiment, pure α-humulene was dissolved in dodecane and solutions with 1000, 500, 100, 50 and 10 mg/L α-humulene prepared. Two cultures each with 12 ml MM and 3 ml dodecane for each α-humulene concentration were inoculated to an OD600 of 0.1 from a preculture of M. extorquens AM1 without dodecane. Cultures with dodecane without α-humulene were used as negative controls. OD600 was measured over 30 h.
Terpenes often have toxic effects on bacteria. The toxicity of α-humulene to M. extorquens was studied by growth analyses in the presence of different α-humulene concentrations. […]

| SMILES | toxic effects or influence on growth [1] | growth-inhibiting effect (growth rate μ compared with μmax without α-humulene) ([2]; α-humulene dissolved directly in the aqueous phase, even at concentrations of 1 g/l) | influence on growth (growth rate μ compared with μmax without α-humulene) ([2]; α-humulene dissolved in the dodecane phase as second organic phase) |
| --- | --- | --- | --- |
| CCCCCCCCCCCC [dodecane] | without any toxic effects or influence on growth being observable |  |  |
| C/C1=C\CC/C(C)=C/CC(C)(C)/C=C/C1 [α-humulene] |  | only minimal growth-inhibiting effects | slightly lesser influence than in the aqueous phase |
